Assay results as given in US12338456B2, “Method for increasing the specific production rate of eukaryotic cells” (Hoffmann-La Roche Inc., priority 2014, dated 2025).
“Also recorded” adds a separate entry of the source.

What was measured:
[1] = test system: recombinant CHO-K1 cell line, called clone 1, expressing a humanized monoclonal antibody; test: CHO fed-batch cultivation with para-, ortho- or meta-Tyr supplementation under Phe limitation conditions; type: cell-based, Chinese Hamster
Procedure: (§1) For all cell culture experiments a recombinant CHO-K1 cell line, called clone 1, expressing a humanized monoclonal antibody was used. The recombinant CHO-K1 cell line was generated using an L-methionine sulfoximine sensitive CHO-K1 host cell line (Lonza, Cologne, Germany). The cells were cultivated in protein free, chemically defined CD-CHO medium (Life Technologies, Darmstadt, Germany) supplemented with 50 μM L-methionine sulfoximine (Sigma Aldrich, Munich, Germany) during seed train cultivation. Seed train cultivation was performed in shake flasks using a humidified incubator, 7% CO2, and 37° C. setting. The cells were splitted every three to four days for subcultivation and culture expansion. For all experiments, cells with identical age in culture (appr. 21 generations) until start of the experiment were used.
(§2) All supplementation experiments were performed using shake flask cultivation systems, chemically defined CD-CHO medium without the selection pressure L-methionine sulfoximine and two appropriate serial continuous applied feeds (feed 1 and feed 2). Recombinant CHO-K1 cells producing a humanized monoclonal antibody were inoculated with 3×10^5 viable cells/mL and cultured for 14 days. CD-CHO base medium was sterile supplemented before inoculation with 0.1 mM, 0.3 mM or 0.4 mM of either ortho-Tyr, meta-Tyr or para-Tyr. Control cultivation with no supplementation of ortho-Tyr, meta-Tyr or para-Tyr was used as reference. Phenylalanine (Phe) non-limitation conditions were realized by increasing concentration of Phe in feed 2.
(§3) For analysis of viable and total cell densities an automated Cedex HiRes system (Roche Diagnostics, Mannheim, Germany) was used. Discrimination of viable and total cell densities were evaluated using the trypan blue exclusion staining method and analyzing more than 10 pictures per sample and day according to the manufacturer's specifications. Viable cell density (VCD) and cell viability were calculated as described in equation 1 (Equ 1) and equation 2 (Equ 2), respectively. Viable cell density=NTrypan blue negative×(10^5 viable cells/ml) (Equ 1) Cell viability=NTrypan blue negative/(NTrypan blue negative+NTrypan blue positive cells)×100% (Equ 2)
(§4) As indicator for overall biomass generation in the process a cumulative cell time integral (CTI) was calculated as followed (Equ 3). Cell time integral=Σ(0.5×(VCDn−1+VCDn)×(tn−tn−1))×(10^5 viable cells×d/ml) (Equ 3)
Lactate dehydrogenase (LDH) activity in the cell-free supernatant was analyzed using a Cobas Integra 400 plus system (Roche Diagnostics, Mannheim, Germany).
(§5) Product titer war either quantified by a Cobas Integra 400 plus system (Roche, Mannheim, Germany) according to the manufacture's protocol or by PorosA HPLC method as described previously (Zeck et al. 2012). The overall specific productivity qP was calculated for the analysis of cell production capacity according to equation 4. qP=(Titern−Titern−1)/(CTIn−CTIn−1)×(pg/(viable cell×d)) (Equ 4) Determination of Peptide Sequence Variants and Identification of Meta- and Ortho-Tyr Sequence Variants with Synthetic Peptides
In concentration screens, a 50% reduction of the […] reduction capacity of CHO cells was observed when supplemented with 0.5 mM meta-Tyr (Gurer-Orhan et al., (2006)). No data or concentration have been reported for ortho-Tyr supplementation in cell cultures to date. Using a dose-dependent cultivation approach, it was aimed to determine the relevance and tolerable concentrations of meta-Tyr and ortho-Tyr on CHO cell growth performance. For this, a CHO cultivation model described in material and methods was supplemented with either 0.1 mM, 0.3 mM or 0.4 mM para-Tyr, ortho-Tyr or meta-Tyr. We used the standard cultivation process with no supplementation as reference, following so-called “control” or “positive control”. Here, Phe will go into limitation by day 10/11.

[2] = test system: recombinant CHO-K1 cell line, called clone 1, expressing a humanized monoclonal antibody; test: CHO fed-batch cultivation with para-, ortho- or meta-Tyr supplementation under Phe non-limitation conditions; type: cell-based, Chinese Hamster
Procedure: as §1, §2, §3, §4, §5
In a second approach, the role of meta- and ortho-Tyr supplementation under Phe non-limitation conditions in CHO fed-batch cultivations was analyzed. For that, the amount of Phe in feed 2 was increased to prevent Phe limitation (FIG. 6).

[3] = test system: CHO cells; details: cited from earlier work
[4] = 0.1 mM, 0.3 mM or 0.4 mM supplementation

Row | Compound | product concentration (overall productivity, product yield) [1] | specific productivity qP (cell-specific product formation rate) [1] | increase of qP compared to control ([1]; 0.1 mM supplementation) | cumulative CTI (cell time integral, overall biomass production) [1, 4] | maximal VCD versus other cultures [1, 4] | increase of qP compared to control ([1]; 0.3 mM supplementation) | increase of qP compared to control ([1]; 0.4 mM supplementation) | impact on cell viability ([1]; fed-batch CHO cultivation) | specific productivity qP (cell-specific product formation rate) ([1]; listed as Meta-Tyr) | product titer (product yield) [2] | specific productivity qP (cell-specific product formation rate) [2] | increase of qP compared to control ([2]; 0.1 mM supplementation) | CTI versus other cultures [2, 4] | increase of qP compared to control ([2]; 0.3 mM supplementation) | increase of qP compared to control ([2]; 0.4 mM supplementation) | reduction of the MTX reduction capacity of CHO cells ([3]; 0.5 mM meta-Tyr) [%] | cell cytotoxicity ([3]; meta-Tyr supplementation of CHO cells) | final LDH activity in the supernatant ([1]; compared to control, meta-Tyr and para-Tyr supplementation) | cell viability ([1]; day 14)
1 | N[C@@H](Cc1cccc(O)c1)C(=O)O [meta-Tyr, meta-tyrosine] | does not alter product yield | overall higher specific productivity qP | +5% | decreased cumulative CTI | dose dependent reduced maximal VCD | +26% | +36% | no significant impact | increases cell-specific product formation rate qP | does not alter product yield | overall higher specific productivity qP; also recorded: increases cell-specific product formation rate qP | +3% | dose dependent reduction in CTI | +26% | +28% | 50 | dose-dependent cell cytotoxicity |  | 
2 | NC(Cc1ccccc1O)C(=O)O (stereo not drawn) [ortho-Tyr, ortho-tyrosine, reference compound] | does not alter product yield |  |  |  |  |  |  |  |  | does not alter product yield |  |  |  |  |  |  |  | higher final LDH activity in the supernatant | less than 60%
